Test results taken from patent publication US20250206732A1, “COMPOUNDS AND METHODS FOR THE TARGETED DEGRADATION OF KRAS” (Arvinas Operations, Inc., priority 2022, published 2025).

Legend:
AsPC-1 HiBiT-KRASG12D = molecular target: T1, AsPC-1 HiBiT-KRASG12D (Homo sapiens, UniProt P01116, G12D); test: HiBiT degradation assay (G12D), AsPC-1 HiBiT-KRASG12D cells; type: cell-based; conditions: 24 hours treatment; for Dmax: ASPC1, AsPC-1 HiBiT-KRASG12D cells, maximum degradation observed; for DC50: AsPC-1 HiBiT-KRASG12D cells, HiBiT luminescence
T1 construct: insert the HiBiT tag onto the N-terminus of one or more of the endogenous KRAS alleles; endogenous in cells; host or cells: AsPC-1 (ATCC CRL-1682), CRISPR-Cas9 knock-in clone, one tagged allele
T1 sequence (P01116 1-188 isoform P01116-2 G12D): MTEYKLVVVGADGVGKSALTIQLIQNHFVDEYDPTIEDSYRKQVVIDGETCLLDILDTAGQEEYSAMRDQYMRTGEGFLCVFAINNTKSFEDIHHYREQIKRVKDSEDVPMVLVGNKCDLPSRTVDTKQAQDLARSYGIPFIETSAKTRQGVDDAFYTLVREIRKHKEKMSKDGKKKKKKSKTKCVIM
Procedure, shortened: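 Endogenous KRASG12D levels were measured via an N-terminal HiBiT tag knocked into AsPC-1 cells. Cells received compound titrations for 24 hours, and HiBiT luminescence was detected after a 45-minute lytic reagent incubation at room temperature.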

SW1573 HiBiT-KRASG12C = molecular target: T2, SW1573 HiBiT-KRASG12C (Homo sapiens, UniProt P01116, G12C); test: HiBiT degradation assay (G12C), SW1573 HiBiT-KRASG12C cells; type: cell-based; conditions: 24 hours treatment; for DC50: HiBiT luminescence; for Dmax: maximum degradation observed;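 on DC50: Letter grades: C is 1000 to 3000 nM and D is above 3000 nM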
T2 construct: expressed in transfected cells
T2 sequence (P01116 1-188 isoform P01116-2 G12C): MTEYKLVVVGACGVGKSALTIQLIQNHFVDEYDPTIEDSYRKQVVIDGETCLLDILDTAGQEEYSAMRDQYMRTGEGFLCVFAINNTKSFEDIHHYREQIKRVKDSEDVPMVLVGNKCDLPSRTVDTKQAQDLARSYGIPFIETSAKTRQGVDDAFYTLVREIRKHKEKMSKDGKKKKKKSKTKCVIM
Description: Reagents. SW1573 (CRL-2170), AsPC-1 (CRL-1682), and SW620 (CCL-227) cells were purchased from ATCC. SW1573 cells are homozygous for the G12C mutation in KRAS, AsPC-1 cells are homozygous for the G12D mutation, and SW620 cells are homozygous for the G12V mutation. SW1573 cells were cultured in DMEM+F12+Glutamax (+Sodium Bicarbonate, +sodium pyruvate, ThermoFisher scientific, #10565) supplemented with 10% FBS (ThermoFisher scientific, #2060357) and 1% Antibiotic-Antimycotic (ThermoFisher scientific, #15240096). AsPC-1 cells were cultured in GIBCO RPMI-1640 (ThermoFisher scientific, catalog #61870-036 with Glutamax, No HEPES, No Na Pyruvate) supplemented with 10% FBS (ThermoFisher scientific, catalog #2060357) and 1× Penicillin-Streptomycin (ThermoFisher scientific, catalog #15140122, 10000 U/ml, 100×). SW620 cells were cultured in DMEM Glutamax (ThermoFisher scientific, catalog #10566016) supplemented with 10% FBS (ThermoFisher scientific, catalog #2060357) and 1× Penicillin-Streptomycin (ThermoFisher scientific, catalog #15140122, 10000 U/ml, 100×). For degradation assays, 384 well plates were used. Alamar blue was purchased from ThermoFisher scientific (A50101) and used according to manufacturer instructions. The Nano-Glo® HiBiT Lytic Detection System and Nano-Glo® HiBiT Blotting System were purchased from Promega (#N3050 and #N2410) and used according to manufacturer instructions.
HiBiT-tagged cell line generation. To create the SW1573 HiBiT-KRASG12C cell line, the nucleotide sequence encoding the 11 amino acid HiBiT tag from Promegal was appended to the N-terminus of the KRASG12C coding sequence. This synthesized DNA was cloned into a modified pcDNA3.1 vector under the control of the thymidine kinase (TK) promoter. This HiBiT-KRASG12C expressing plasmid was transfected into parental SW1573 cells and colonies were selected using 400 μg/mL zeocin. The resulting clonal lines were screened for expression of HiBiT-KRASG12C protein using Nano-Glo® HiBiT Blotting System. A luminescent band of the correct size for HiBiT-KRASG12C was detected in several clones. Clone E6 was selected for further studies.
HiBiT degradation assays (G12C and G12D). Either SW1573 HiBiT-KRasG12C or AsPC-1 HiBiT-KRasG12D cells were plated at 9000 or 15,000 cells/well in a 384 well plate (Corning #3770). Compounds of the present disclosure and positive controls were diluted in the appropriate cell media and applied to the plated cells resulting in a final concentration titration of 10 μM to 508 pM in 0.5% DMSO. Gambogic acid was used as a positive control for cytotoxicity and titrated from 10 μM to 78 nM. All assays were performed in triplicate. Cells were treated with compounds for 24 hours at 37° C. in an incubator containing 5% CO2. Following treatment, alamar blue was used to determine if any compounds led to a loss in cell viability after 24 hours. The 10× alamar blue reagent was added to a final concentration of 1× as recommended by the manufacturer and cells were returned to the incubator for 4 hours. Plates were then allowed to equilibrate to room temperature and fluorescence was measured using a Perkin-Elmer EnVision. After completion of the fluorescence read, the liquid from each well was removed and the cells were washed with PBS. The Nano-Glo® HiBiT detection reagent was prepared according to the manufacturer's instructions and added to each well after the PBS wash was removed. Following incubation at room temperature for 45 minutes, the luminescence was read using the ultra-sensitive luminescence aperture on the Envision instrument.
Data analysis. Fluorescence values from the alamar blue treatment were normalized to the DMSO-only control for each compound titration. […]

SMILES | Dmax (AsPC-1 HiBiT-KRASG12D) | DC50 (AsPC-1 HiBiT-KRASG12D) | DC50 (SW1573 HiBiT-KRASG12C) | Dmax (SW1573 HiBiT-KRASG12C)
CCc1cccc2cc(O)cc(-c3ncc4c(N5CC6CCC(C5)N6)nc(OCCN5CCC(COc6cc([C@@H](C(=O)N7C[C@H](O)C[C@H]7C(=O)N[C@@H](C)c7ccc(-c8scnc8C)cc7)C(C)C)on6)CC5)nc4c3F)c12 [Compound 8, (2S,4R)-1-[(2S)-2-[3-[[1-[2-[4-(3,8-diazabicyclo[3.2.1]octan-3-yl)-7-(8-ethyl-3-hydroxy-1-naphthyl)-8-fluoro-pyrido[4,3-d]pyrimidin-2-yl]oxyethyl]-4-piperidyl]methoxy]isoxazol-5-yl]-3-methyl-butanoyl]-4-hydroxy-N-[(1S)-1-[4-(4-methylthiazol-5-yl)phenyl]ethyl]pyrrolidine-2-carboxamide] | 20 to 60% | 1 to 3 µM | > 3 µM | –
CCc1cccc2cc(O)cc(-c3ncc4c(N5CC6CCC(C5)N6)nc(OCCN5CCC(COCC(=O)N[C@H](C(=O)N6C[C@H](O)C[C@H]6C(=O)N[C@@H](C)c6ccc(-c7scnc7C)cc6)C(C)(C)C)CC5)nc4c3F)c12 [Compound 21, (2S,4R)-1-[(2S)-2-[[2-[[1-[2-[4-(3,8-diazabicyclo[3.2.1]octan-3-yl)-7-(8-ethyl-3-hydroxy-1-naphthyl)-8-fluoro-pyrido[4,3-d]pyrimidin-2-yl]oxyethyl]-4-piperidyl]methoxy]acetyl]amino]-3,3-dimethyl-butanoyl]-4-hydroxy-N-[(1S)-1-[4-(4-methylthiazol-5-yl)phenyl]ethyl]pyrrolidine-2-carboxamide] | 80 to 100% | < 0.6 µM | > 3 µM | –
C#Cc1c(F)ccc2cc(O)cc(-c3ncc4c(N5CC6CCC(C5)N6)nc(OCCN5CCC(COc6cc([C@H](C(=O)N7C[C@H](O)C[C@H]7C(=O)N[C@@H](C)c7ccc(-c8scnc8C)cc7)C(C)C)on6)CC5)nc4c3F)c12 [Compound 39, (2S,4R)-1-[(2R)-2-{3-[(1-{2-[(4-{3,8-diazabicyclo[3.2.1]octan-3-yl}-7-(8-ethynyl-7-fluoro-3-hydroxynaphthalen-1-yl)-8-fluoropyrido[4,3-d]pyrimidin-2-yl)oxy]ethyl}piperidin-4-yl)methoxy]-1,2-oxazol-5-yl}-3-methylbutanoyl]-4-hydroxy-N-[(1S)-1-[4-(4-methyl-1,3-thiazol-5-yl)phenyl]ethyl]pyrrolidine-2-carboxamide] | 80 to 100% | < 0.6 µM | 1 to 3 µM | 20 to 60%
CCc1cccc2cc(O)cc(-c3ncc4c(N5CCCCCC5)nc(OC[C@@]56CCCN5[C@H](COC(=O)N5CCN(c7cc([C@@H](C(=O)N8C[C@H](O)C[C@H]8C(=O)N[C@@H](C)c8ccc(-c9scnc9C)cc8)C(C)C)on7)CC5)CC6)nc4c3F)c12 [Compound 44, [(3S,7aS)-7a-({[4-(azepan-1-yl)-7-(8-ethyl-3-hydroxynaphthalen-1-yl)-8-fluoropyrido[4,3-d]pyrimidin-2-yl]oxy}methyl)-hexahydro-1H-pyrrolizin-3-yl]methyl 4-{5-[(2S)-1-[(2S,4R)-4-hydroxy-2-{[(1S)-1-[4-(4-methyl-1,3-thiazol-5-yl)phenyl]ethyl]carbamoyl}pyrrolidin-1-yl]-3-methyl-1-oxobutan-2-yl]-1,2-oxazol-3-yl}piperazine-1-carboxylate] | < 20% | < 0.6 µM | > 3 µM | –
C#Cc1cccc2cc(O)cc(-c3ncc4c(N5CC6CCC(C6)C5)nc(OCCN5CCC(COc6cc([C@H](C(=O)N7C[C@H](O)C[C@H]7C(=O)N[C@@H](C)c7ccc(-c8scnc8C)cc7)C(C)C)on6)CC5)nc4c3F)c12 [Compound 18, (2S,4R)-1-[(2R)-2-[3-[[1-[2-[4-(3-azabicyclo[3.2.1]octan-3-yl)-7-(8-ethynyl-3-hydroxy-1-naphthyl)-8-fluoro-pyrido[4,3-d]pyrimidin-2-yl]oxyethyl]-4-piperidyl]methoxy]isoxazol-5-yl]-3-methyl-butanoyl]-4-hydroxy-N-[(1S)-1-[4-(4-methylthiazol-5-yl)phenyl]ethyl]pyrrolidine-2-carboxamide] | – | > 3 µM | > 3 µM | –
CCc1cccc2cc(O)cc(-c3ncc4c(N5CCCCCC5)nc(OC[C@@]56CCCN5[C@H](COC(=O)N5CCN(c7cc([C@H](C(=O)N8C[C@H](O)C[C@H]8C(=O)N[C@@H](C)c8ccc(-c9scnc9C)cc8)C(C)C)on7)CC5)CC6)nc4c3F)c12 [Compound 42, [(3S,7aS)-7a-({[4-(azepan-1-yl)-7-(8-ethyl-3-hydroxynaphthalen-1-yl)-8-fluoropyrido[4,3-d]pyrimidin-2-yl]oxy}methyl)-hexahydro-1H-pyrrolizin-3-yl]methyl 4-{5-[(2R)-1-[(2S,4R)-4-hydroxy-2-{[(1S)-1-[4-(4-methyl-1,3-thiazol-5-yl)phenyl]ethyl]carbamoyl}pyrrolidin-1-yl]-3-methyl-1-oxobutan-2-yl]-1,2-oxazol-3-yl}piperazine-1-carboxylate] | 80 to 100% | < 0.6 µM | ≤ 0.6 µM | 80 to 100%
Cc1ccc2[nH]ncc2c1-c1ncc2c(N3CC4CCC(C3)N4)nc(OCCN3CCC(COc4cc([C@H](C(=O)N5C[C@H](O)C[C@H]5C(=O)N[C@@H](C)c5ccc(-c6scnc6C)cc5)C(C)C)on4)CC3)nc2c1F [Compound 3, (2S,4R)-1-[(2R)-2-[3-[[1-[2-[4-(3,8-diazabicyclo[3.2.1]octan-3-yl)-8-fluoro-7-(5-methyl-1H-indazol-4-yl)pyrido[4,3-d]pyrimidin-2-yl]oxyethyl]-4-piperidyl]methoxy]isoxazol-5-yl]-3-methyl-butanoyl]-4-hydroxy-N-[(1S)-1-[4-(4-methylthiazol-5-yl)phenyl]ethyl]pyrrolidine-2-carboxamide] | – | > 3 µM | > 3 µM | –
CCc1cccc2cc(O)cc(-c3ncc4c(N5CC6CCC(C5)N6)nc(OCCN5CCC(OCCOCC(=O)N[C@H](C(=O)N6C[C@H](O)C[C@H]6C(=O)N[C@@H](C)c6ccc(-c7scnc7C)cc6)C(C)(C)C)CC5)nc4c3F)c12 [Compound 11] | 60 to 80% | 1 to 3 µM | > 3 µM | –
CCc1cccc2cc(O)cc(-c3ncc4c(N5CC6CCC(C5)N6)nc(OC[C@]56CCCN5[C@@H](COC(=O)N5CCN(c7cc([C@@H](C(=O)N8C[C@H](O)C[C@H]8C(=O)N[C@@H](C)c8ccc(-c9scnc9C)cc8)C(C)C)on7)CC5)CC6)nc4c3F)c12 [Compound 6] | < 20% | 1 to 3 µM | > 3 µM | –
CCc1cccc2cc(O)cc(-c3ncc4c(N5CC6CCC(C5)N6)nc(OCCN5CCC(OCC(=O)N[C@H](C(=O)N6C[C@H](O)C[C@H]6C(=O)N[C@@H](C)c6ccc(-c7scnc7C)cc6)C(C)(C)C)CC5)nc4c3F)c12 [Compound 12, (2S,4R)-1-[(2S)-2-[[2-[[1-[2-[4-(3,8-diazabicyclo[3.2.1]octan-3-yl)-7-(8-ethyl-3-hydroxy-1-naphthyl)-8-fluoro-pyrido[4,3-d]pyrimidin-2-yl]oxyethyl]-4-piperidyl]oxy]acetyl]amino]-3,3-dimethyl-butanoyl]-4-hydroxy-N-[(1S)-1-[4-(4-methylthiazol-5-yl)phenyl]ethyl]pyrrolidine-2-carboxamide] | 80 to 100% | 1 to 3 µM | > 3 µM | –
